Patent US8227407B2, “Macrocyclic inhibitors of hepatitis C virus” (Medivir AB, priority 2008, dated 2012)

What was measured:
[1] = target: T1, full-length hepatitis C NS3 protease enzyme with NS4A cofactor (HCV NS3/4A protease) (Hepatitis C virus genotype 1a, UniProt P27958); test: HCV NS3/4A protease inhibition assay (enzymatic); format: biochemical; conditions: 1 nM enzyme, 25 μM NS4A cofactor, 0.5 μM depsipeptide substrate, 30° C., competitive inhibition model
T1 construct: full-length hepatitis C NS3 protease enzyme
T1 sequence (P27958 1027-1657): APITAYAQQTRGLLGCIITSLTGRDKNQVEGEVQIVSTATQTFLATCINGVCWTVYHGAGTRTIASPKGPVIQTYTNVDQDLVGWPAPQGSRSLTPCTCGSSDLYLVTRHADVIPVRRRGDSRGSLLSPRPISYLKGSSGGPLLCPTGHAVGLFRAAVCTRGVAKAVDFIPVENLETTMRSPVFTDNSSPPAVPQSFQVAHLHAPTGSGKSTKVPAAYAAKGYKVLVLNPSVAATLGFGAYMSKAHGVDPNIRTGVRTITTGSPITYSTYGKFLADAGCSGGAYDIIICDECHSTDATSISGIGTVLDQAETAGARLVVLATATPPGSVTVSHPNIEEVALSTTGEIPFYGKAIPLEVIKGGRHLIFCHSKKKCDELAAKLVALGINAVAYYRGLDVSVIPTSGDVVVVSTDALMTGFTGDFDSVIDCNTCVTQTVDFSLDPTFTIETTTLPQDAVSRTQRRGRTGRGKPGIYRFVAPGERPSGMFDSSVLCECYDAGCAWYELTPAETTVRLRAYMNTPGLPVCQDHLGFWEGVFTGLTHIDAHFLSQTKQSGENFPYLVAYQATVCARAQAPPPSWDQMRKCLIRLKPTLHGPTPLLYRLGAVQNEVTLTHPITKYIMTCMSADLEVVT
Procedure: The aim of this in vitro assay was to measure the inhibition of HCV NS3/4A protease complexes by the compounds of the present invention. This assay provides an indication of how effective compounds of the present invention would be in inhibiting HCV NS3/4A proteolytic activity.
The inhibition of full-length hepatitis C NS3 protease enzyme was measured essentially as described in Poliakov, 2002 Prot Expression & Purification 25 363 371. Briefly, the hydrolysis of a depsipeptide substrate, Ac-DED(Edans)EEAbuψ[COO]ASK(Dabcyl)-NH2 (AnaSpec, San José, USA), was measured spectrofluorometrically in the presence of a peptide cofactor, KKGSVVIVGRIVLSGK (Åke Engström, Department of Medical Biochemistry and Microbiology, Uppsala University, Sweden). [Landro, 1997 #Biochem 36 9340-9348]. The enzyme (1 nM) was incubated in 50 mM HEPES, pH 7.5, 10 mM DTT, 40% glycerol, 0.1% n-octyl-D-glucoside, with 25 μM NS4A cofactor and inhibitor at 30° C. for 10 min, whereupon the reaction was initiated by addition of 0.5 μM substrate. Inhibitors were dissolved in DMSO, sonicated for 30 sec. and vortexed. The solutions were stored at −20° C. between measurements.
The final concentration of DMSO in the assay sample was adjusted to 3.3%. The rate of hydrolysis was corrected for inner filter effects according to published procedures. [Liu, 1999 Analytical Biochemistry 267 331-335]. […]

[2] = tested on: HCV replicons (Huh-7 luc/neo cells, NS3-NS5B regions of HCV type 1b); test: HCV replicon assay (Huh-Luc cells, luciferase readout); format: cell-based; conditions: Hepatitis C virus, Huh-7, 72 h, three days incubation, luciferase activity
Procedure: The in vitro antiviral activity against HCV of the compounds of formula (I) was tested in a cellular HCV replicon system based on Lohmann et al. (1999) Science 285:110-113, with the further modifications described by Krieger et al. (2001) Journal of Virology 75: 4614-4624, which is further exemplified in the examples section. This model, while not a complete infection model for HCV, is widely accepted as the most robust and efficient model of autonomous HCV RNA replication currently available. […] It will be appreciated that it is important to distinguish between compounds that specifically interfere with HCV functions from those that exert cytotoxic or cytostatic effects in the HCV replicon model, and as a consequence cause a decrease in HCV RNA or linked reporter enzyme concentration. […]
The replicon cells were plated in 384 well plates in the presence of the test and control compounds which were added in various concentrations. Following an incubation of three days, HCV replication was measured by assaying luciferase activity (using standard luciferase assay substrates and reagents and a Perkin Elmer ViewLux™ ultraHTS microplate imager). […] The inhibitory activity of the compound on luciferase activity was monitored on the Huh-Luc cells, enabling a dose-response curve for each test compound. […]

SMILES | Ki [1] | EC50 [2]
COc1ccc2c(O[C@@H]3C[C@H]4C(=O)N[C@]5(C(=O)NS(=O)(=O)N(C)C)C[C@H]5/C=C\CCCCN(C)C(=O)[C@@H]4C3)cc(-c3nc(C(C)C)cs3)nc2c1 [Compound 37, N-[17-[2-(4-isopropylthiazol-2-yl)-7-methoxyquinolin-4-yloxy]-13-methyl-2,14-dioxo-3,13-diazatricyclo[13.3.0.0^4,6]octadec-7-ene-4-carbonyl](dimethylamino)sulfonamide] | 24 nM | 0.3 µM
CCN(C)S(=O)(=O)NC(=O)[C@@]12C[C@H]1/C=C\CCCCN(C)C(=O)[C@@H]1C[C@H](Oc3cc(-c4nc(C(C)C)cs4)nc4cc(OC)ccc34)C[C@H]1C(=O)N2 [Compound 38, N-[17-[2-(4-isopropylthiazol-2-yl)-7-methoxyquinolin-4-yloxy]-13-methyl-2,14-dioxo-3,13-diazatricyclo[13.3.0.0^4,6]octadec-7-ene-4-carbonyl]-[(ethyl)(methyl)amino]sulfonamide] | 24 nM | 0.3 µM
